One series has as its system mice. The experiment in a line: Acute toxicity by intravenous administration. The format is in vivo. Conditions: five mice, intravenous to tail vein, dose of 100 mg/Kg. Here is the method: On the other hand, it was confirmed that the acute toxicity of all extent of the compounds of the present invention was more than 100 mg/Kg by intravenous administration. Therefore, glycerol derivatives of the present invention may be considered to be sufficiently safe and suitable for medical use. For example, the mortality (daed/used) in glycerol derivatives of the present invention, i.e. compounds prepared in Example 4 was 0/5, when glycerol derivatives was intravenous administered to tail vein in five mice at the dose of 100 mg/Kg.

Series [1] addresses PAF (10 nM)-induced aggregation (Cavia porcellus, UniProt P21556). The experiment in a line: Inhibitory effect on PAF-induced platelet aggregation (platelet rich plasma, absorbancy method, aggregometer of Born). The format is cell-based. Conditions: male guinea pig platelet rich plasma. The method, then: Whole blood of male guinea pig was collected with a 3.8% aqueous solution of trisodium citrate in a proportion of 9:1 (v/v) and the mixture was centrifuged (120 x g) for 10 minutes at room temperature to obtain platelet rich plasma. Using obtained plasma, PAF (10 nM)-induced aggregation was determined by the absorbancy method using an aggrego-meter of Born [cf. J. Physiol., 162, 67 (1962)].
The evaluation is conducted using the concentration of compounds of the present invention required to produce a 50% inhibition of each effect, i.e. IC50.

These results are taken from patent EP0145303A1, “Glycerol derivatives” (ONO PHARMACEUTICAL CO., LTD., priority 1983, dated 1985).

For orientation: IC50 means the point on the concentration scale where inhibition reaches its midpoint. Lower therefore signals inhibition by little substance.

Chain of PAF (10 nM)-induced aggregation (P21556 whole entry): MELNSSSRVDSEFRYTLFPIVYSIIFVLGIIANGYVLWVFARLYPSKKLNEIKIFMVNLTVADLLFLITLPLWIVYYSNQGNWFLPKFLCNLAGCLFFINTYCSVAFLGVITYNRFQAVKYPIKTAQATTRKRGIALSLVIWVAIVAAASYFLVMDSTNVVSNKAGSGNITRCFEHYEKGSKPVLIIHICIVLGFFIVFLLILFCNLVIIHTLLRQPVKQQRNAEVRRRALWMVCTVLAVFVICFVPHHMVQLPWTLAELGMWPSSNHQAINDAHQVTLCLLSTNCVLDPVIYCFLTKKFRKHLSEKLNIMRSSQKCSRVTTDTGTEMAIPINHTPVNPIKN

For `CCCCCCCCCCCCCCCCOCC(COc1ccc(CCCC[N+](C)(C)C)cc1)NC(=O)OCC(C)C` (centres unmarked) [Example 4], the “mortality (daed/used)” value with mice was 0/5.

As for `CCCCCCCCCCCCCCCCOCC(COc1ccc(CCCC[N+](C)(C)C)cc1)NC(=O)NC` (centres unmarked) [5(a)], inhibition in series [1] was half-maximal at 4.7 µM (IC50).

As for `CCCCCCCCCCCCCCCCOCC(COCCCc1ccc([N+](C)(C)C)cc1)NC(=O)OCC(C)C` (racemic) [Example 9], the IC50 in series [1] is 3.7 µM.

The compound `CCCCCCCCCCCCCCCCOCC(COc1ccc(CCCC[N+](C)(C)C)cc1)NC(C)=O` (centres unmarked) [Example 5] yielded a half-maximal inhibitory concentration (IC50) in series [1] of 6.7 µM.

Regarding `CCCCCCCCCCCCCCCCOCC(COc1ccc(CCCC[N+](C)(C)C)cc1)OC(C)=O` (centres unmarked) [Example 2], 5 µM corresponded to half-maximal inhibition in series [1] (IC50).
